Laboratory results as given in ChEMBL document CHEMBL4371056, “The development and characterization of a chemical probe targeting PRMT1 over PRMT5” (Bioorg Med Chem, 2019).
Calls of active or inactive are those of the source. No cut-off for these calls is given here. Starred links: 1 amine or outer side, 2 acyl side, 3 side chain; linkers in the order of their positions; H or OH if unused. Non-standard residues stand in square brackets, D forms with d. Residues, ends and D or L forms follow the SMILES beside them. *: point of attachment. X1 = N=C(CCl)NCCCC(N[*:1])C(=O)[*:2]; Butanoyl(4-ethynyl) = C#CCCCC(=O)*

Legend:
[1] = target: T1, Protein arginine N-methyltransferase 5 (Homo sapiens, UniProt O14744); test: Inhibition of recombinant full-length N-terminal His6-tagged PRMT5 (unknown origin) using AcH4-21 peptide substrate preincubated for 10 mins followed by substrate/14C-methyl-SAM addition and measured after 15 mins by phosphorimaging analysis based radioisotopic assay
[2] = target: T2, Protein arginine N-methyltransferase 1 (Homo sapiens, UniProt Q99873); test: (§1) Binding affinity to recombinant full-length N-terminal His6-tagged PRMT1 (unknown origin) assessed as time needed for maximum biotin labelling of PRMT1 at 10 uM using biotin azide and in presence of SAM incubated for 30 mins by Western blot analysis
Target sequence in this assay (Q99873 whole entry, looked up): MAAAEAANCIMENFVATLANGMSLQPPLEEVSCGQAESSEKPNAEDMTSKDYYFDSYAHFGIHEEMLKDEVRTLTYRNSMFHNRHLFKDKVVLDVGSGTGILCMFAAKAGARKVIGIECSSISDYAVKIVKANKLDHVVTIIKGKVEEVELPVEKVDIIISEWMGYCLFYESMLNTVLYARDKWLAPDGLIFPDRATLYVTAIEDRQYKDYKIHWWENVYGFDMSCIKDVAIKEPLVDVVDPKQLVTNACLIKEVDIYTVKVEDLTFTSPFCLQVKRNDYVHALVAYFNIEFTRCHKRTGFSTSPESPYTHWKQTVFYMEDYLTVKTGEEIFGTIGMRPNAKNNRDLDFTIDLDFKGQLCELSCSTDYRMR

Homo sapiens [3] = species on record: Homo sapiens; test: Binding affinity to PRMT1 C101A mutant (unknown origin) assessed as biotin labelling of PRMT1 at >25 uM using biotin azide and in presence of SAM incubated for 30 mins by Western blot analysis
[4] = target: T2, Protein arginine N-methyltransferase 1; test: Binding affinity to recombinant full-length N-terminal His6-tagged PRMT1 (unknown origin) assessed as lowest drug level for biotin labelling of PRMT1 using biotin azide and in presence of SAM incubated for 30 mins by Western blot analysis
Target sequence in this assay (Q99873 whole entry, looked up): as above

Homo sapiens [5] = species on record: Homo sapiens; test: Selectivity index, ratio of binding affinity to recombinant full-length N-terminal His6-tagged PRMT5 (unknown origin) assessed as biotin labelling of PRMT5 at 25 uM to binding affinity to recombinant full-length N-terminal His6-tagged PRMT1 (unknown origin) assessed as biotin labelling of PRMT1 at 25 uM
[6] = target: T2, Protein arginine N-methyltransferase 1; test: as §1, with “as” for “as time needed for maximum”, “uM in presence of recombinant full-length N-terminal His6-tagged PRMT5 (unknown origin)” for “uM”, “mins at 25 degC” for “mins”
Target sequence in this assay (Q99873 whole entry, looked up): as above

[7] = target: T2, Protein arginine N-methyltransferase 1; test: (§2) Binding affinity to recombinant full-length N-terminal His6-tagged PRMT1 (unknown origin) assessed as biotin labelling of PRMT1 at 1 uM using biotin azide and in presence of SAM incubated for 30 mins by Western blot analysis
Target sequence in this assay (Q99873 whole entry, looked up): as above

[8] = target: T2, Protein arginine N-methyltransferase 1; test: Binding affinity to recombinant full-length N-terminal His6-tagged PRMT1 (unknown origin) assessed as biotin labelling of PRMT1 at >25 uM using biotin azide incubated for 30 mins by Western blot analysis
Target sequence in this assay (Q99873 whole entry, looked up): as above

[9] = target: T2, Protein arginine N-methyltransferase 1; test: as §2, with “at 10” for “at 1”, “uM in presence of recombinant full-length N-terminal His6-tagged PRMT5 (unknown origin)” for “uM”, “mins at 37 degC” for “mins”
Target sequence in this assay (Q99873 whole entry, looked up): as above

[10] = target: T2, Protein arginine N-methyltransferase 1; test: Inhibition of recombinant full-length N-terminal His6-tagged PRMT1 (unknown origin) using AcH4-21 peptide substrate preincubated for 10 mins followed by substrate/14C-methyl-SAM addition and measured after 15 mins by phosphorimaging analysis based radioisotopic assay
Target sequence in this assay (Q99873 whole entry): as the sequence (Q99873 whole entry, looked up) above

[11] = target: T2, Protein arginine N-methyltransferase 1; test: Binding affinity to recombinant full-length N-terminal His6-tagged PRMT1 (unknown origin) assessed as biotin labelling of PRMT1 at 1 uM using biotin azide and in absence of SAM incubated for 30 mins by Western blot analysis
[12] = target: T1, Protein arginine N-methyltransferase 5; test: Binding affinity to recombinant full-length N-terminal His6-tagged PRMT5 (unknown origin) assessed as biotin labelling of PRMT5 at 50 uM using biotin azide incubated for 30 mins by Western blot analysis
Homo sapiens [13] = species on record: Homo sapiens; test: Binding affinity to PRMT1 C101A mutant (unknown origin) assessed as biotin labelling of PRMT1 at <25 uM using biotin azide and in presence of SAM incubated for 30 mins by Western blot analysis
Homo sapiens [14] = species on record: Homo sapiens; test: Binding affinity to PRMT1 C101A mutant (unknown origin) assessed as optimum drug level for biotin labelling of PRMT1 using biotin azide and in presence of SAM incubated for 30 mins by Western blot analysis

T1 sequence (O14744 whole entry): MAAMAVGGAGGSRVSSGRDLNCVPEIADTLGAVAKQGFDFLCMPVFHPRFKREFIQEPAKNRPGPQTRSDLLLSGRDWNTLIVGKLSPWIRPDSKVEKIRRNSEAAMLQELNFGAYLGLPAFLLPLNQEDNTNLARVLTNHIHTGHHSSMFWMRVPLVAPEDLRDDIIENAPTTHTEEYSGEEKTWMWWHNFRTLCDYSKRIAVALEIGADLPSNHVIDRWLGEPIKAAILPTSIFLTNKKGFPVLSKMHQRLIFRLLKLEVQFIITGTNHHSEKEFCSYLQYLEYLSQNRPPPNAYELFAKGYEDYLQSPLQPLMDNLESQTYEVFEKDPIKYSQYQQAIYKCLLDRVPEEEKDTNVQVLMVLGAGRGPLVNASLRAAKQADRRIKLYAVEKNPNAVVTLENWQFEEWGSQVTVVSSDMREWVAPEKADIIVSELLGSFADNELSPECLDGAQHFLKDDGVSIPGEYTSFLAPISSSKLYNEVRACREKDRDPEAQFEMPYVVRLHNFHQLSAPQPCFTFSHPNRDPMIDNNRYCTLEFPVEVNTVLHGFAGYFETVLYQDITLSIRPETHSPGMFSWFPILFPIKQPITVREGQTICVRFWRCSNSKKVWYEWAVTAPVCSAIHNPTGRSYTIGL

Compound: C#CCCCC(=O)N[C@@H](Cc1cnc[nH]1)C(=O)N[C@@H](CCCCN)C(=O)N[C@@H](Cc1cnc[nH]1)C(=O)N[C@@H](C)C(=O)NC(CCCNC(=N)CCl)C(=O)NCC(=O)NCC(=O)N[C@@H](CCCCN)C(=O)NCC(=O)N[C@@H](CC(C)C)C(=O)NCC(=O)N[C@@H](CCCCN)C(=O)NCC(=O)NCC(=O)N[C@@H](C)C(=O)N[C@@H](CCCCN)C(=O)O (some centres undefined) ({Butanoyl(4-ethynyl)}-HKHA[X1]GGKGLGKGGAK-OH)
- IC50 [1]: > 500 µM
- TIME [2]: 0.5 h
- Activity (Homo sapiens [3]): Active
- Activity [4]: 0.25 µM
- Ratio (Homo sapiens [5]): 8
- Activity [6]: Active
- Activity [7]: Active
- Activity [8]: Active
- Activity [9]: Active
- IC50 [10]: 20 µM
- Activity [11]: Active
- Activity [12]: inactive
- Activity (Homo sapiens [13]): inactive
- Activity (Homo sapiens [14]): 10 µM
